Measurements from patent US20120065173A1 (priority 2006, published 2012).

Target: T1, recombinant human GR (Homo sapiens, UniProt P04150)
T1 construct: purchased Panvera/Invitrogen P2812 (kit P2893)
T1 sequence (P04150 1-777): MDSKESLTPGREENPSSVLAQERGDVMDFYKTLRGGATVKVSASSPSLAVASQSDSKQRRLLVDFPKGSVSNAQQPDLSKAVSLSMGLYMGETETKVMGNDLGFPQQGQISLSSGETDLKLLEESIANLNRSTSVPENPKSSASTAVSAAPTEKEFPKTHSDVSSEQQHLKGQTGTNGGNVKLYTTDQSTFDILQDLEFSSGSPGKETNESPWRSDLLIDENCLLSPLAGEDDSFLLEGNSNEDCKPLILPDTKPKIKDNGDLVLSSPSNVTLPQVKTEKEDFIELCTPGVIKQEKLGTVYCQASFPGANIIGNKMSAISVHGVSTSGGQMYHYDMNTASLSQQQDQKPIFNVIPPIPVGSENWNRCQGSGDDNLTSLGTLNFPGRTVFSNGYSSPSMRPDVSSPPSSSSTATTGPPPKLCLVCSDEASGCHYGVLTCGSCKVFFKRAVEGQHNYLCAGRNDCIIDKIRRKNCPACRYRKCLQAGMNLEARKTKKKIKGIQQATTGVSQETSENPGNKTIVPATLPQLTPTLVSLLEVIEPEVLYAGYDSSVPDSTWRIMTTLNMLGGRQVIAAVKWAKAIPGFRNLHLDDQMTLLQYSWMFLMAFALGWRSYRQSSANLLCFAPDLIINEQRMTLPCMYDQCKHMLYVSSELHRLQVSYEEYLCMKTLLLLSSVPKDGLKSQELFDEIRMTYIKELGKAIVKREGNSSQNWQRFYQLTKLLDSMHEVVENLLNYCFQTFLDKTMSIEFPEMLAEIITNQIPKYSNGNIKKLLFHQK
Test: Human Glucocorticoid Receptor (GR) Assay, fluorescence polarization (GRhuFL_FP_v2)
Assay type: binding
Conditions: GS Red tracer, 2 hours at room temperature, 100% control 10 μM Dexamethasone
Method: Human Glucocorticoid Receptor (GR) Assay
The assay is based on a commercial kit from Panvera/Invitrogen (Part number P2893). The assay technology is fluorescence polarization. […] The GR and Stabilizing Peptide reagents are stored at −70° C. while the GS Red is stored at −20° C. Also included in the kit are 1M DTT (Panvera, Part number P2325, stored at −20° C.) and GR Screening buffer 10× (Panvera, Part number P2814, stored at −70° C. initially but once thawed stored at room temperature). Avoid repeated freeze/thaws for all reagents. The GR Screening buffer 10× comprises 100 mM potassium phosphate, 200 mM sodium molybdate, 1 mM EDTA and 20% DMSO.
0% control was 100% DMSO and 100% control was 10 μM Dexamethasone. Background solution (8 μL; assay buffer 10×, Stabilizing Peptide, DTT and ice cold MQ water) was added to the background wells. GS Red solution (7 μL; assay buffer 10×, Stabilizing Peptide, DTT, GS Red and ice cold water) was added to all wells except background wells. GR solution (7 μL; assay buffer 10×, Stabilizing Peptide, DTT, GR and ice cold water) was added to all wells. The plate was sealed and incubated in a dark at room temperature for 2 hours.

SMILES	IC50 [nM]
C[C@H](NS(=O)(=O)C1CC1)[C@H](Oc1ccc2c(cnn2-c2ccc(F)cc2)c1)c1ccc([S+](C)[O-])cc1 (stereo partly drawn) [Example 31, N-[(1R,2S)-1-[1-(4-fluorophenyl)indazol-5-yl]oxy-1-(4-methylsulfinylphenyl)propan-2-yl]cyclopropanesulfonamide]	6.4
Cc1ccc(-n2ncc3cc(O[C@H](c4ccccc4)C(C)(C)NS(=O)(=O)C4CC4)ccc32)cc1 [Example 26, (R)—N-(2-methyl-1-phenyl-1-(1-p-tolyl-1H-indazol-5-yloxy)propan-2-yl)cyclopropanesulfonamide]	77
CCCC(C)S(=O)(=O)N[C@@H](C)[C@H](Oc1ccc2c(cnn2-c2ccc(F)cc2)c1)c1ccccc1 (stereo partly drawn) [Example 13, N-[(1R,2S)-1-[1-(4-fluorophenyl)indazol-5-yl]oxy-1-phenyl-propan-2-yl]pentane-2-sulfonamide]	5
C[C@H](NS(C)(=O)=O)[C@H](Sc1ccc2c(cnn2-c2ccc(F)cc2)c1)c1ccccc1 [Example 38, N-((1R,2S)-1-(1-(4-fluorophenyl)-1H-indazol-5-ylthio)-1-phenylpropan-2-yl)methanesulfonamide]	4.8
C[C@H](NS(=O)(=O)CC(F)(F)F)[C@H](Oc1ccc2c(cnn2-c2ccc(F)cc2)c1)c1ccccc1 [Example 22, 2,2,2-trifluoro-N-[(1R,2S)-1-[1-(4-fluorophenyl)indazol-5-yl]oxy-1-phenyl-propan-2-yl]ethanesulfonamide]	2.7
C[C@H](NS(=O)(=O)C1CC1)[C@H](Oc1ccc2c(cnn2-c2ccc(F)cc2)c1)c1ccc2c(c1)OCCO2 [Example 43, N-((1R,2S)-1-(2,3-dihydrobenzo[b][1,4]dioxin-6-yl)-1-(1-(4-fluorophenyl)-1H-indazol-5-yloxy)propan-2-yl)cyclopropanesulfonamide]	2.3
CC(NS(=O)(=O)C1CC1)C(Oc1cc2cnn(-c3ccc(F)cc3)c2cc1Cl)c1ccc(F)cc1 (racemic) [Example 36, N-[(1RS,2RS)-1-[6-chloro-1-(4-fluorophenyl)indazol-5-yl]oxy-1-(4-fluorophenyl)propan-2-yl]cyclopropanesulfonamide]	4.3
C[C@H](NS(=O)(=O)C1CC1)[C@H](Oc1cc2cnn(-c3ccc(F)cc3)c2cc1Cl)c1ccc(F)cc1 (racemic) [Example 35, N-[(1RS,2SR)-1-[6-chloro-1-(4-fluorophenyl)indazol-5-yl]oxy-1-(4-fluorophenyl)propan-2-yl]cyclopropanesulfonamide]	6.2
C[C@H](NS(=O)(=O)Cc1ccccc1)[C@H](Oc1ccc2c(cnn2-c2ccc(F)cc2)c1)c1ccccc1 [Example 6, N-[(1R,2S)-1-[1-(4-fluorophenyl)indazol-5-yl]oxy-1-phenyl-propan-2-yl]-1-phenyl-methanesulfonamide]	5.9
C[C@H](NS(=O)(=O)CC1CCCCC1)[C@H](Oc1ccc2c(cnn2-c2ccc(F)cc2)c1)c1ccccc1 [Example 23, 1-Cyclohexyl-N-[(1R,2S)-1-[1-(4-fluorophenyl)indazol-5-yl]oxy-1-phenyl-propan-2-yl]methanesulfonamide]	9.5
CCCCS(=O)(=O)N[C@@H](C)[C@H](Oc1ccc2c(cnn2-c2ccc(F)cc2)c1)c1ccccc1 [Example 15]	5.4
C[C@H](NS(C)(=O)=O)[C@@H](c1ccccc1)S(=O)(=O)c1ccc2c(cnn2-c2ccc(F)cc2)c1 [Example 39]	280
O=S(=O)(NC[C@H](Sc1ccc2c(cnn2-c2ccc(F)cc2)c1)c1ccccc1)C1CC1 [Example 37, (R)—N-[2-[1-(4-fluorophenyl)indazol-5-yl]sulfanyl-2-phenyl-ethyl]cyclopropanesulfonamide]	17
CCCCCCS(=O)(=O)N[C@@H](C)[C@H](Oc1ccc2c(cnn2-c2ccc(F)cc2)c1)c1ccccc1 [Example 24, N-[(1R,2S)-1-[1-(4-fluorophenyl)indazol-5-yl]oxy-1-phenyl-propan-2-yl]hexane-1-sulfonamide]	7.6
C[C@H](NS(=O)(=O)c1cccnc1)[C@H](Oc1ccc2c(cnn2-c2ccc(F)cc2)c1)c1ccccc1 [Example 25, N-[(1R,2S)-1-[1-(4-fluorophenyl)indazol-5-yl]oxy-1-phenyl-propan-2-yl]pyridine-3-sulfonamide]	7
C[C@H](NS(=O)(=O)C1CC1)[C@H](Oc1ccc2c(cnn2-c2ccc(F)nc2)c1)c1ccccc1 [Example 4, N-[(1R,2S)-1-[1-(6-fluoropyridin-3-yl)indazol-5-yl]oxy-1-phenyl-propan-2-yl]cyclopropanesulfonamide]	4.9
C[C@H](NS(=O)(=O)C1CCCC1)[C@H](Oc1ccc2c(cnn2-c2ccc(F)cc2)c1)c1ccccc1 [Example 21, N-[(1R,2S)-1-[1-(4-fluorophenyl)indazol-5-yl]oxy-1-phenyl-propan-2-yl]cyclopentanesulfonamide]	9.9
C[C@H](NS(=O)(=O)CCN1C(=O)c2ccccc2C1=O)[C@H](Oc1ccc2c(cnn2-c2ccc(F)cc2)c1)c1ccccc1 [Example 10, 2-(1,3-Dioxoisoindol-2-yl)-N-[(1R,2S)-1-[1-(4-fluorophenyl)indazol-5-yl]oxy-1-phenyl-propan-2-yl]ethanesulfonamide]	6.5
C[C@H](NS(=O)(=O)CCC(F)(F)F)[C@H](Oc1ccc2c(cnn2-c2ccc(F)cc2)c1)c1ccccc1 [Example 18, 3,3,3-trifluoro-N-[(1R,2S)-1-[1-(4-fluorophenyl)indazol-5-yl]oxy-1-phenyl-propan-2-yl]propane-1-sulfonamide]	4.3
O=S(=O)(NC[C@@H](Oc1ccc2c(cnn2-c2ccc(F)cc2)c1)c1ccccc1)C1CC1 [Example 41, N-[(2S)-2-[1-(4-fluorophenyl)indazol-5-yl]oxy-2-phenyl-ethyl]cyclopropanesulfonamide]	250
C[C@H](NS(=O)(=O)N(C)C)[C@H](Oc1ccc2c(cnn2-c2ccc(F)cc2)c1)c1ccccc1 [Example 8]	4.6
C[C@H](NS(=O)(=O)CC1CCCC1)[C@H](Oc1ccc2c(cnn2-c2ccc(F)cc2)c1)c1ccccc1 [Example 20, 1-Cyclopentyl-N-[(1R,2S)-1-[1-(4-fluorophenyl)indazol-5-yl]oxy-1-phenyl-propan-2-yl]methanesulfonamide]	8.7
C[C@H](NS(=O)(=O)C1CC1)[C@H](Oc1ccc2c(cnn2C2CCCC2)c1)c1ccccc1 [Example 32, N-[(1R,2S)-1-(1-cyclopentylindazol-5-yl)oxy-1-phenyl-propan-2-yl]cyclopropanesulfonamide]	7.6
COc1ccc(OCCCS(=O)(=O)N[C@@H](C)[C@H](Oc2ccc3c(cnn3-c3ccc(F)cc3)c2)c2ccccc2)cc1 [Example 11, N-[(1R,2S)-1-[1-(4-fluorophenyl)indazol-5-yl]oxy-1-phenyl-propan-2-yl]-3-(4-methoxyphenoxy)propane-1-sulfonamide]	6.9
O=S(=O)(NC[C@H](Oc1ccc2c(cnn2-c2ccc(F)cc2)c1)c1ccccc1)C1CC1 [Example 40, N-[(2R)-2-[1-(4-fluorophenyl)indazol-5-yl]oxy-2-phenyl-ethyl]cyclopropanesulfonamide]	13
C[C@H](NS(=O)(=O)C1CC1)[C@H](Oc1ccc2c(cnn2-c2ccc(F)cc2)c1)c1cnc2ccccc2c1 [Example 42, N-((1R,2S)-1-(1-(4-fluorophenyl)-1H-indazol-5-yloxy)-1-(quinolin-3-yl)propan-2-yl)cyclopropanesulfonamide]	3.6
COC(=O)CCS(=O)(=O)N[C@@H](C)[C@H](Oc1ccc2c(cnn2-c2ccc(F)cc2)c1)c1ccccc1 [Example 19, Methyl 3-[[(1R,2S)-1-[1-(4-fluorophenyl)indazol-5-yl]oxy-1-phenyl-propan-2-yl]sulfamoyl]propanoate]	5.1
CC(C)n1ncc2cc(O[C@H](c3ccccc3)[C@H](C)NS(C)(=O)=O)ccc21 [Example 30, N-[(1R,2S)-1-phenyl-1-(1-propan-2-ylindazol-5-yl)oxy-propan-2-yl]methanesulfonamide]	330
CCS(=O)(=O)N[C@@H](C)[C@H](Oc1ccc2c(cnn2-c2ccc(F)cc2)c1)c1ccccc1 [Example 12, N-[(1R,2S)-1-[1-(4-fluorophenyl)indazol-5-yl]oxy-1-phenyl-propan-2-yl]ethanesulfonamide]	2.8
